Consider eight molecules from US9782522B2, “Compositions and methods for treating and preventing neointimal stenosis” (Yale University, priority 2011, dated 2017).

The subject of data set [1] is mammary epithelial cells. As to conditions: cited from earlier work.
For data set [2] the following is noted: doses of 40 mg and 80 mg; cited from earlier work.
Data set [3] relates to TGF-β types I and II receptors. The note with it: cited from earlier work.
Data set [4] concerns TGF-β1-induced smad2/3 nuclear localization. The note with it: cited from earlier work.
Data set [5] relates to Smad2/3 phosphorylation. As to conditions: cited from earlier work.
Data set [6] has as its system let-7 family miRNAs. Briefly: qRT-PCR let-7 miRNA expression in endothelial cells. The format is cell-based, human. The note with it: normal EC (HUAEC); U0126 at 10 μM. The method, then:
Quantitative PCR analysis of 88 miRNA was performed using Human Cell Differentiation & Development RT^2 Profiler™ PCR Arrays (MAH-103A, QIAGEN) following the manufacturer's protocol. Validation of microRNA array data was performed with the RT^2 miRNA qPCR Assays and RT-PCR Primer Sets according to the manufacturer's instructions (QIAGEN). Primers for human mature let-7a (MPH00001A), let-7b (MPH00002A), let-7c (MPH00003A), let-7d (MPH00004A), let-7e (MPH00005A), let-7f (MPH00006A), let-7g (MPH00007A), mir-98 (MPH00480A), SNORD47 (MPH01660A) were from QIAGEN. Primers for mouse mature let-7a (MPM00483A), let-7b (MPM00484A), let-7c (MPM485A), let-7d (MPM00486A), let-7e (MPM00487A), let-7f (MPM00488A), let-7g (MPM00489A), let-7i (MPM00490A), mir-98 (MPM00875A) were from QIAGEN. Individual miRNA expression was normalized in relation to expression or small nuclear U6B RNA, a commonly used internal control for miRNA quantification assay. PCR amplification consisted of 10 min of an initial denaturation step at 95° C., followed by 45 cycles of PCR at 95° C. for 30 s, 60° C. for 30 s.
Recombinant human FGF2 (R&D) and TGFβ1 (Peprotech) were reconstituted in 0.1% BSA/PBS. U0126 (Sigma), a MEK inhibitor, was reconstituted in DMSO and used at a final concentration of 10 μM. […]
(In general: Quantitative PCR measures a nucleic acid by following its amplification.)

The test system of data set [7] is HUAEC. Briefly: qRT-PCR mRNA expression of TGFβ signaling and Endo-MT markers in endothelial cells. The format is cell-based, human. The note with it: primary EC in vitro following FRS2 knockdown; lentiviral let-7 expression. The source says: Human 293T T17 cells (ATCC CRL-11268) were maintained in Dulbecco's modified Eagle's medium (Gibco) with 10% fetal bovine serum (Invitrogen) and penicillinstreptomycin (Gibco). Primary human mammary epithelial cells (HuMEC, Invitrogen), were maintained in HuMEC basal serum free medium with HuMEC supplement (Invitrogen 12754-016) and bovine pituitary extract (Invitrogen 13028-014). Human foreskin cells (ATCC CRL-1079Sk) were maintained in Minimum Essential Medium (ATCC) with 10% fetal bovine serum (Hyclone), β-mercaptoethanol (Sigma), and penicillin-streptomycin (Gibco). Primary human atrial cells (passage 3-5; gift from Y. Qyang, Yale University School of Medicine) were maintained in Dulbecco's modified Eagle's medium (Gibco) with 10% fetal bovine serum (Invitrogen), L-glutamine (Gibco), Sodium pyruvate (Gibco), Non-essential amino acid (Gibco), and penicillin-streptomycin (Gibco). HUAEC (human umbilical artery endothelial cells, passage 5-10, Lonza) were cultured in EBM-2 supplemented with EGM-2-MV bullet kit (Lonza). HUVEC (human umbilical vein endothelial cells, passage 3-7, Yale Vascular Biology and Therapeutics) were cultured in M199 with ECGS, supplemented with 20% FBS (Sigma), L-glutamine (Gibco), and penicillin-streptomycin (Gibco). Culture vessels were coated with 0.1% gelatin (Sigma) for 30 min at 37° C. immediately prior to cell seeding. Primary mouse endothelial cells were isolated from the heart using rat anti-mouse CD31 antibody and Dynabeads (Invitrogen) as previously described (Partovian C, et al. Mol Cell. 32(1):140 (2008)).
RNA was isolated using RNeasy® plus Mini Kit (Qiagen) and converted to cDNA using iScript™ cDNA synthesis kit (Bio-Rad). Quantitative real-time PCR (qRT-PCR) was performed using Bio-Rad […] (Bio-Rad) by mixing equal amount of eDNAs, iQ™ SYBR® Green Supermix (Bio-Rad) and gene specific primers. All reactions were done in a 25 μl reaction volume in duplicate. Data were normalized to endogenous β-actin. Values are expressed as fold change in comparison to control. Mouse TGFβ gene expression was quantified via qRT-PCR with TaqMan® Gene Expression Assays (Mm00441726_m1; Applied Biosystems) and HPRT (Mm00441258_1; Applied Biosystems) as endogenous control followed the manufacturer's recommendation. Quantitative PCR analysis of 84 TGFβ and epithelial to mesenchymal transition (EMT) related genes were performed using Human TGFβ BMP signaling pathway (PAHS-035D, QIAGEN) and Human Epithelial to Mesenchymal Transition (PAHS-090D, QIAGEN) RT^2 Profiler™ PCR Arrays following the manufacturer's protocol. RT^2 Profiler™ PCR arrays were run on a Bio-Rad CFX96 machine (Bio-Rad). Duplicate arrays were run per condition for control and FRS2 knockdown human umbilical arterial endothelial cells (HUAEC). Data analysis was performed using the manufacturer's integrated web-based software package for the PCR Array System using cycle threshold (Ct)-based fold-change calculations.
Recombinant human FGF2 (R&D) and TGFβ1 (Peprotech) were reconstituted in 0.1% BSA/PBS. U0126 (Sigma), a MEK inhibitor, was reconstituted in DMSO and used at a final concentration of 10 μM. SB431542 (Sigma), a TGFBR1 kinase inhibitor, was reconstituted in DMSO and used at a final concentration of 10 μM in cell culture. Actinomycin D (Sigma), a DNA transcription suppressor, was reconstituted in acetone and used at a final concentration of 10 μg/ml in cell culture. […]

In the case of `Cc1cccc(-c2nc(NCc3cccc(C#N)c3)sc2-c2ccc3ncnn3c2)n1` [EW-7203, 3((5-([1,2,4]triazolo[1,5-a]pyridin-6-yl)-4-(6-methylpyridin-2-yl)thiazol-2-ylamino)methyl)benzonitrile], in data set [1], the Endo-MT entry is recorded as “inhibits” and the “TGF-β1-induced Smad signaling” value is on record as “inhibits”.

Consider `Cc1cccc(-c2nn3c(c2-c2ccnc4ccc(C(N)=O)cc24)CCC3)n1` [LY2157299, 4-(2-(6-methylpyridin-2-yl)-5,6-dihydro-4H-pyrrolo[1,2-b]pyrazol-3-yl)quinoline-6-carboxamide], for which the Tolerability result in data set [2] is given as “well tolerated”. Consider `CCCCc1nc(Cl)c(CO)n1Cc1ccc(-c2ccccc2-c2nnn[nH]2)cc1` [Losartan, (2-butyl-4-chloro-1-{[2′-(1H-tetrazol-5-yl)biphenyl-4-yl]methyl}-1H-imidazol-5-yl)methanol], for which the “Expression of TGF-β types I and II receptors” value in data set [3] is “downregulate”. As to `Cc1cccc(-c2[nH]c(C(C)(C)C)nc2-c2ccc3nccnc3c2)n1` [SB525334, 6-[2-(1,1-Dimethylethyl)-5-(6-methyl-2-pyridinyl)-1H-imidazol-4-yl]quinoxaline], in data set [4], the “TGF-β1-induced mRNA expression” value is “inhibits” and the “TGF-β1-induced smad2/3 nuclear localization” value is reported as “inhibits”. Turning to `Cc1cccc(-c2nc(C34CCC(C(N)=O)(CC3)CC4)[nH]c2-c2ccc3c(c2)OCO3)n1` [SM16, 4-(5-(benzo[d][1,3]dioxol-5-yl)-4-(6-methylpyridin-2-yl)-1H-imidazol-2-yl)bicyclo[2.2.2]octane-1-carboxamide], the “TGF-β and activin-induced Smad2/3 phosphorylation” value in data set [5] was “blocks”. In the case of `N#CC(=C(/N)Sc1ccccc1N)/C(C#N)=C(\N)Sc1ccccc1N` [U0126], in data set [6], the “Expression of let-7 family miRNAs” value is “decrease”. On the same count and under the same terms, the same measure for FGF2: Recombinant human FGF2 (R&D): “time dependent increase”.

B1: Let-7b/c: let-7b and let-7c miRNAs expressed from lentivirus vector (pre-let-7b, pre-let-7c) (nucleic acid, listed as Homo sapiens)
chain: GCAUCCGGGUUGAGGUAGUAGGUUGUAUGGUUUAGAGUUACACCCUGGGAGUUAACUGUACAACCUUCUAGCUUUCCUUGGAGC
For B1, in data set [7], the “Expression of all SMC and mesenchymal markers” value is on record as “declined to pre-FRS2 knockdown levels”; the “TGFβR1 and SMAD2 expression” value is on record as “fully inhibited”.
